Data: ChEMBL document CHEMBL1201861, “Genomics of Drug Sensitity in Cancer screening data, Wellcome Trust Sanger Institute”
pIC50: −log10 of the molar value.

What was measured:
Experiment in all cases: cells
Conditions in all cases: Homo sapiens
COLO-800 = type: functional, cell-based;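 also: growth inhibition of COLO-800 cells, read out with a cell viability assay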
Description: SANGER: Inhibition of human COLO-800 cell growth in a cell viability assay.

COR-L88 = type: functional, cell-based;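 also: growth inhibition of COR-L88 cells, read out with a cell viability assay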
Description: SANGER: Inhibition of human COR-L88 cell growth in a cell viability assay.

Calu-6 = type: functional, cell-based;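 also: growth of human Calu-6 cells, read out by a cell viability assay, IC50 marking inhibition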
Description: SANGER: Inhibition of human Calu-6 cell growth in a cell viability assay.

DMS-114 = type: functional, cell-based
ES1 = type: functional, cell-based;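 also: growth inhibition of ES1 cells, read out with a cell viability assay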
Description: SANGER: Inhibition of human ES1 cell growth in a cell viability assay.

ES3 = type: functional, cell-based;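 also: growth inhibition of ES3 cells, read out with a cell viability assay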
Description: SANGER: Inhibition of human ES3 cell growth in a cell viability assay.

ES8 = type: functional, cell-based;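 also: growth inhibition of human ES8 cells, read out with a cell viability assay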
Description: SANGER: Inhibition of human ES8 cell growth in a cell viability assay.

EW-1 = type: functional, cell-based
Description: SANGER: Inhibition of human EW-1 cell growth in a cell viability assay.

EW-18 = type: functional, cell-based;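 also: growth inhibition of EW-18 cells, read out by a cell viability assay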
Description: SANGER: Inhibition of human EW-18 cell growth in a cell viability assay.

EW-24 = type: functional, cell-based;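 also: human EW-24 cancer cell line, growth inhibition read out via a cell viability assay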
Description: SANGER: Inhibition of human EW-24 cell growth in a cell viability assay.

EW-3 = type: functional, cell-based;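 also: cell viability assay read-out, IC50 reflects inhibition of growth of the EW-3 cells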
Description: SANGER: Inhibition of human EW-3 cell growth in a cell viability assay.

EOL1 = type: functional, cell-based;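 also: growth inhibition of EoL-1 cells, read out by a cell viability assay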
Description: SANGER: Inhibition of human EoL-1-cell cell growth in a cell viability assay.

GB-1 = type: functional, cell-based;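 also: growth of GB-1 cells judged by a viability assay, IC50 marks the concentration inhibiting growth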
Description: SANGER: Inhibition of human GB-1 cell growth in a cell viability assay.

GCIY = type: functional, cell-based;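 also: growth inhibition of the human GCIY cell line, read out by a cell viability assay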
Description: SANGER: Inhibition of human GCIY cell growth in a cell viability assay.

GOTO = type: functional, cell-based;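 also: growth inhibition of GOTO cells, read out by a cell viability assay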
Description: SANGER: Inhibition of human GOTO cell growth in a cell viability assay.

HCE-4 = type: functional, cell-based;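 also: cell viability assay measuring inhibition of growth in the human HCE-4 cell line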
Description: SANGER: Inhibition of human HCE-4 cell growth in a cell viability assay.

HT-144 = type: functional, cell-based
Description: SANGER: Inhibition of human HT-144 cell growth in a cell viability assay.

HuTu80 = type: functional, cell-based, HUTU-80;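 also: growth inhibition of HuTu80 human cells, determined with a cell viability readout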
Description: SANGER: Inhibition of human HUTU-80 cell growth in a cell viability assay.

IA-LM = type: functional, cell-based;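 also: cell viability assay measuring growth inhibition of human IA-LM cells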
Description: SANGER: Inhibition of human IA-LM cell growth in a cell viability assay.

IST-MEL1 = type: functional, cell-based;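 also: growth inhibition of the cell line, read out with a cell viability assay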
Description: SANGER: Inhibition of human IST-MEL1 cell growth in a cell viability assay.

IST-SL1 = type: functional, cell-based;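 also: growth inhibition of human IST-SL1 cells, read out with a cell viability assay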
Description: SANGER: Inhibition of human IST-SL1 cell growth in a cell viability assay.

JAR = type: functional, cell-based;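 also: growth inhibition of human JAR cells determined with a cell viability assay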
Description: SANGER: Inhibition of human JAR cell growth in a cell viability assay.

K5 = type: functional, cell-based
Description: SANGER: Inhibition of human K5 cell growth in a cell viability assay.

KGN = type: functional, cell-based;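 also: growth inhibition of KGN cells, read out with a cell viability assay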
Description: SANGER: Inhibition of human KGN cell growth in a cell viability assay.

KM12 = type: functional, cell-based;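 also: KM12 cell growth inhibition, read out with a cell viability assay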
Description: SANGER: Inhibition of human KM12 cell growth in a cell viability assay.

KMOE-2 = type: functional, cell-based;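 also: growth inhibition of human KMOE-2 cells, read out with a cell viability assay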
Description: SANGER: Inhibition of human KMOE-2 cell growth in a cell viability assay.

KY821 = type: functional, cell-based;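 also: growth inhibition of human KY821 cells, read out by a cell viability assay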
Description: SANGER: Inhibition of human KY821 cell growth in a cell viability assay.

LB2241-RCC = type: functional, cell-based;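 also: cell viability assay measuring how strongly the cultured human renal carcinoma line is prevented from growing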
Description: SANGER: Inhibition of human LB2241-RCC cell growth in a cell viability assay.

LB771-HNC = type: functional, cell-based;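 also: growth inhibition of LB771-HNC human cells, read out with a cell viability assay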
Description: SANGER: Inhibition of human LB771-HNC cell growth in a cell viability assay.

LB831-BLC = type: functional, cell-based;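 also: growth inhibition of LB831-BLC cells, read out with a cell viability assay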
Description: SANGER: Inhibition of human LB831-BLC cell growth in a cell viability assay.

LNCaP-Clone-FGC = type: functional, cell-based
Description: SANGER: Inhibition of human LNCaP-Clone-FGC cell growth in a cell viability assay.

LS-123 = type: functional, cell-based
Description: SANGER: Inhibition of human LS-123 cell growth in a cell viability assay.

LS-513 = type: functional, cell-based
Description: SANGER: Inhibition of human LS-513 cell growth in a cell viability assay.

MZ7-mel = type: functional, cell-based;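 also: growth inhibition of human MZ7-mel cells, measured by a cell viability assay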
Description: SANGER: Inhibition of human MZ7-mel cell growth in a cell viability assay.

NB6 = type: functional, cell-based;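 also: growth inhibition of NB6 cells, read out by a cell viability assay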
Description: SANGER: Inhibition of human NB6 cell growth in a cell viability assay.

NCI-H1155 = type: functional, cell-based;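 also: cell growth inhibition measured by a viability assay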
Description: SANGER: Inhibition of human NCI-H1155 cell growth in a cell viability assay.

NCI-H209 = type: functional, cell-based;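 also: growth inhibition of human NCI-H209 cells, measured by a cell viability assay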
Description: SANGER: Inhibition of human NCI-H209 cell growth in a cell viability assay.

NCI-H446 = type: functional, cell-based;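 also: growth inhibition of NCI-H446 cells determined by a cell viability assay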
Description: SANGER: Inhibition of human NCI-H446 cell growth in a cell viability assay.

NCI-H69 = type: functional, cell-based;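 also: growth inhibition of the cell line, read out with a cell viability assay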
Description: SANGER: Inhibition of human NCI-H69 cell growth in a cell viability assay.

SNU-5 = type: functional, cell-based;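 also: cell viability readout used to measure growth inhibition in human NCI-SNU-5 cells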
Description: SANGER: Inhibition of human NCI-SNU-5 cell growth in a cell viability assay.

OCI-AML2 = type: functional, cell-based;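 also: growth inhibition of OCI-AML2 cells, read out with a cell viability assay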
Description: SANGER: Inhibition of human OCI-AML2 cell growth in a cell viability assay.

OS-RC-2 = type: functional, cell-based;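 also: growth inhibition of human OS-RC-2 cells, measured by a cell viability assay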
Description: SANGER: Inhibition of human OS-RC-2 cell growth in a cell viability assay.

P30-OHK = type: functional, cell-based;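 also: growth inhibition of the P30-OHK cell line, read out with a cell viability assay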
Description: SANGER: Inhibition of human P30-OHK cell growth in a cell viability assay.

QIMR-WIL = type: functional, cell-based;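 also: growth inhibition of QIMR-WIL cells, read out with a cell viability assay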
Description: SANGER: Inhibition of human QIMR-WIL cell growth in a cell viability assay.

RKO = type: functional, cell-based;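 also: growth inhibition of human RKO cells, read out with a cell viability assay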
Description: SANGER: Inhibition of human RKO cell growth in a cell viability assay.

RXF 393 = type: functional, cell-based;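 also: growth inhibition of human RXF 393 cells, read out with a cell viability assay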
Description: SANGER: Inhibition of human RXF393 cell growth in a cell viability assay.

SBC-1 = type: functional, cell-based;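 also: cell viability assay measuring growth inhibition of the SBC-1 cell line, IC50 being the concentration that halves growth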
Description: SANGER: Inhibition of human SBC-1 cell growth in a cell viability assay.

SHP77 = type: functional, cell-based, SHP-77;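 also: growth inhibition of human SHP-77 cells measured by a cell viability assay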
Description: SANGER: Inhibition of human SHP-77 cell growth in a cell viability assay.

SJSA-1 = type: functional, cell-based;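 also: growth inhibition of human SJSA-1 cells, read out through a cell viability measurement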
Description: SANGER: Inhibition of human SJSA-1 cell growth in a cell viability assay.

SK-MEL-2 = type: functional, cell-based;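 also: growth inhibition of human SK-MEL-2 cells measured with a cell viability assay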
Description: SANGER: Inhibition of human SK-MEL-2 cell growth in a cell viability assay.

SK-N-FI = type: functional, cell-based;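 also: cell viability assay measuring growth inhibition of human SK-N-FI cells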
Description: SANGER: Inhibition of human SK-N-FI cell growth in a cell viability assay.

SK-PN-DW = type: functional, cell-based;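 also: growth inhibition measured with a viability assay on these cells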
Description: SANGER: Inhibition of human SK-PN-DW cell growth in a cell viability assay.

SNU-C2B = type: functional, cell-based;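 also: cell viability readout used to measure compound-driven suppression of SNU-C2B cell proliferation, IC50 marking half-maximal growth inhibition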
Description: SANGER: Inhibition of human SNU-C2B cell growth in a cell viability assay.

SW872 = type: functional, cell-based;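 also: growth inhibition of SW872 cells, read out by a viability assay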
Description: SANGER: Inhibition of human SW872 cell growth in a cell viability assay.

A101D = type: functional, cell-based
Description: SANGER: Inhibition of human A101D cell growth in a cell viability assay.

A3-KAW = type: functional, cell-based
Description: SANGER: Inhibition of human A3-KAW cell growth in a cell viability assay.

A388 = type: functional, cell-based
Description: SANGER: Inhibition of human A388 cell growth in a cell viability assay.

A704 = type: functional, cell-based
Description: SANGER: Inhibition of human A704 cell growth in a cell viability assay.

ACN = type: functional, cell-based
Description: SANGER: Inhibition of human ACN cell growth in a cell viability assay.

BB30-HNC = type: functional, cell-based
Description: SANGER: Inhibition of human BB30-HNC cell growth in a cell viability assay.

BE-13 = type: functional, cell-based
Description: SANGER: Inhibition of human BE-13 cell growth in a cell viability assay.

C8166 = type: functional, cell-based
Description: SANGER: Inhibition of human C8166 cell growth in a cell viability assay.

TE-10 = type: functional, cell-based
Description: SANGER: Inhibition of human TE-10 cell growth in a cell viability assay.

TE-6 = type: functional, cell-based
Description: SANGER: Inhibition of human TE-6 cell growth in a cell viability assay.

CCRF-CEM = type: functional, cell-based
Description: SANGER: Inhibition of human CCRF-CEM cell growth in a cell viability assay.

COLO-668 = type: functional, cell-based
Description: SANGER: Inhibition of human COLO-668 cell growth in a cell viability assay.

Question: Which results are given for `CC(O)(CS(=O)(=O)c1ccc(F)cc1)C(=O)Nc1ccc(C#N)c(C(F)(F)F)c1` (configuration not stated) [BICALUTAMIDE]?
Answer: pIC50 (COLO-800): < 5.99; pIC50 (COR-L88): < 5.99; pIC50 (Calu-6): < 5.99; pIC50 (DMS-114): < 5.99; pIC50 (ES1): < 5.99; pIC50 (ES3): < 5.99; pIC50 (ES8): < 5.99; pIC50 (EW-1): < 5.99; pIC50 (EW-18): < 5.99; pIC50 (EW-24): < 5.99; pIC50 (EW-3): < 5.99; pIC50 (EOL1): < 5.99; pIC50 (GB-1): < 5.99; pIC50 (GCIY): < 5.99; pIC50 (GOTO): < 5.99; pIC50 (HCE-4): < 5.99; pIC50 (HT-144): < 5.99; pIC50 (HuTu80): < 5.99; pIC50 (IA-LM): < 5.99; pIC50 (IST-MEL1): < 5.99; pIC50 (IST-SL1): < 5.99; pIC50 (JAR): < 5.99; pIC50 (K5): < 5.99; pIC50 (KGN): < 5.99; pIC50 (KM12): < 5.99; pIC50 (KMOE-2): < 5.99; pIC50 (KY821): < 5.99; pIC50 (LB2241-RCC): < 5.99; pIC50 (LB771-HNC): < 5.99; pIC50 (LB831-BLC): < 5.99; pIC50 (LNCaP-Clone-FGC): < 5.99; pIC50 (LS-123): < 5.99; pIC50 (LS-513): < 5.99; pIC50 (MZ7-mel): < 5.99; pIC50 (NB6): < 5.99; pIC50 (NCI-H1155): < 5.99; pIC50 (NCI-H209): < 5.99; pIC50 (NCI-H446): < 5.99; pIC50 (NCI-H69): < 5.99; pIC50 (SNU-5): < 5.99; pIC50 (OCI-AML2): < 5.99; pIC50 (OS-RC-2): < 5.99; pIC50 (P30-OHK): < 5.99; pIC50 (QIMR-WIL): < 5.99; pIC50 (RKO): < 5.99; pIC50 (RXF 393): < 5.99; pIC50 (SBC-1): < 5.99; pIC50 (SHP77): < 5.99; pIC50 (SJSA-1): < 5.99; pIC50 (SK-MEL-2): < 5.99; pIC50 (SK-N-FI): < 5.99; pIC50 (SK-PN-DW): < 5.99; pIC50 (SNU-C2B): < 5.99; pIC50 (SW872): < 5.99; pIC50 (A101D): < 5.99; pIC50 (A3-KAW): < 5.99; pIC50 (A388): < 5.99; pIC50 (A704): < 5.99; pIC50 (ACN): < 5.99; pIC50 (BB30-HNC): < 5.99; pIC50 (BE-13): < 5.99; pIC50 (C8166): < 5.99; pIC50 (TE-10): < 5.99; pIC50 (TE-6): < 5.99; pIC50 (CCRF-CEM): < 5.99; pIC50 (COLO-668): < 5.99

Question: How did the pIC50 (COLO-800) turn out when `COc1cc(Nc2c(C#N)cnc3cc(OCCCN4CCN(C)CC4)c(OC)cc23)c(Cl)cc1Cl` [BOSUTINIB] was run?
Answer: Its pIC50 is under 5.70.

Question: What about the pIC50 (COR-L88) of the same compound?
Answer: Its pIC50 is under 5.70.

Question: And the pIC50 (Calu-6)?
Answer: Its pIC50 is under 5.70.

Question: And the pIC50 (DMS-114)?
Answer: The pIC50 was under 5.70.

Question: What about the pIC50 (ES1) of the same compound?
Answer: The pIC50 was 6.17.

Question: And the pIC50 (ES3)?
Answer: Its pIC50 is under 5.70.

Question: What about the pIC50 (ES8) of the same compound?
Answer: The pIC50 was under 5.70.

Question: What about the pIC50 (EW-1) of the same compound?
Answer: The pIC50 was under 5.70.

Question: And the pIC50 (EW-18)?
Answer: The pIC50 was under 5.70.

Question: And the pIC50 (EW-24)?
Answer: Its pIC50 is under 5.70.

Question: What about the pIC50 (EW-3) of the same compound?
Answer: Its pIC50 is 6.25.

Question: What about the pIC50 (EOL1) of the same compound?
Answer: Its pIC50 is 6.38.

Question: What about the pIC50 (GB-1) of the same compound?
Answer: The pIC50 was under 5.70.

Question: What about the pIC50 (GCIY) of the same compound?
Answer: The pIC50 was under 5.70.

Question: And the pIC50 (GOTO)?
Answer: Its pIC50 is under 5.70.

Question: What about the pIC50 (HCE-4) of the same compound?
Answer: The pIC50 was under 5.70.

Question: And the pIC50 (HT-144)?
Answer: Its pIC50 is under 5.70.

Question: And the pIC50 (HuTu80)?
Answer: The pIC50 was under 5.70.

Question: And the pIC50 (IA-LM)?
Answer: Its pIC50 is under 5.70.

Question: And the pIC50 (IST-MEL1)?
Answer: The pIC50 was under 5.70.

Question: And the pIC50 (IST-SL1)?
Answer: Its pIC50 is under 5.70.

Question: What about the pIC50 (JAR) of the same compound?
Answer: Its pIC50 is 5.83.

Question: What about the pIC50 (K5) of the same compound?
Answer: The pIC50 was under 5.70.

Question: What about the pIC50 (KGN) of the same compound?
Answer: The pIC50 was under 5.70.

Question: What about the pIC50 (KM12) of the same compound?
Answer: Its pIC50 is under 5.70.

Question: What about the pIC50 (KMOE-2) of the same compound?
Answer: Its pIC50 is under 5.70.

Question: What about the pIC50 (KY821) of the same compound?
Answer: Its pIC50 is 5.95.

Question: What about the pIC50 (LB2241-RCC) of the same compound?
Answer: Its pIC50 is 6.27.

Question: What about the pIC50 (LB771-HNC) of the same compound?
Answer: Its pIC50 is 6.08.

Question: What about the pIC50 (LB831-BLC) of the same compound?
Answer: Its pIC50 is under 5.70.

Question: And the pIC50 (LNCaP-Clone-FGC)?
Answer: Its pIC50 is under 5.70.

Question: What about the pIC50 (LS-123) of the same compound?
Answer: Its pIC50 is under 5.70.

Question: What about the pIC50 (LS-513) of the same compound?
Answer: The pIC50 was under 5.70.

Question: And the pIC50 (MZ7-mel)?
Answer: The pIC50 was under 5.70.

Question: And the pIC50 (NB6)?
Answer: Its pIC50 is under 5.70.

Question: What about the pIC50 (NCI-H1155) of the same compound?
Answer: Its pIC50 is under 5.70.

Question: What about the pIC50 (NCI-H209) of the same compound?
Answer: The pIC50 was 6.39.

Question: What about the pIC50 (NCI-H446) of the same compound?
Answer: The pIC50 was under 5.70.

Question: What about the pIC50 (NCI-H69) of the same compound?
Answer: The pIC50 was under 5.70.

Question: And the pIC50 (SNU-5)?
Answer: Its pIC50 is under 5.70.

Question: And the pIC50 (OCI-AML2)?
Answer: Its pIC50 is under 5.70.

Question: And the pIC50 (OS-RC-2)?
Answer: Its pIC50 is under 5.70.

Question: What about the pIC50 (P30-OHK) of the same compound?
Answer: The pIC50 was under 5.70.

Question: And the pIC50 (QIMR-WIL)?
Answer: The pIC50 was 5.96.

Question: And the pIC50 (RKO)?
Answer: Its pIC50 is under 5.70.

Question: What about the pIC50 (RXF 393) of the same compound?
Answer: Its pIC50 is under 5.70.

Question: What about the pIC50 (SBC-1) of the same compound?
Answer: Its pIC50 is under 5.70.

Question: What about the pIC50 (SHP77) of the same compound?
Answer: Its pIC50 is under 5.70.

Question: What about the pIC50 (SJSA-1) of the same compound?
Answer: Its pIC50 is under 5.70.

Question: And the pIC50 (SK-MEL-2)?
Answer: Its pIC50 is under 5.70.

Question: What about the pIC50 (SK-N-FI) of the same compound?
Answer: Its pIC50 is under 5.70.

Question: What about the pIC50 (SK-PN-DW) of the same compound?
Answer: The pIC50 was under 5.70.

Question: And the pIC50 (SNU-C2B)?
Answer: The pIC50 was under 5.70.

Question: And the pIC50 (SW872)?
Answer: Its pIC50 is under 5.70.

Question: What about the pIC50 (A101D) of the same compound?
Answer: The pIC50 was 5.71.

Question: And the pIC50 (A3-KAW)?
Answer: Its pIC50 is 6.10.

Question: And the pIC50 (A388)?
Answer: The pIC50 was under 5.70.

Question: What about the pIC50 (A704) of the same compound?
Answer: Its pIC50 is under 5.70.

Question: And the pIC50 (ACN)?
Answer: Its pIC50 is under 5.70.

Question: And the pIC50 (BB30-HNC)?
Answer: The pIC50 was 5.89.

Question: And the pIC50 (BE-13)?
Answer: Its pIC50 is 6.31.

Question: And the pIC50 (C8166)?
Answer: Its pIC50 is under 5.70.

Question: And the pIC50 (TE-10)?
Answer: Its pIC50 is under 5.70.

Question: What about the pIC50 (TE-6) of the same compound?
Answer: Its pIC50 is under 5.70.

Question: What about the pIC50 (CCRF-CEM) of the same compound?
Answer: The pIC50 was under 5.70.

Question: And the pIC50 (COLO-668)?
Answer: Its pIC50 is under 5.70.
